Tested on: KRAS patient-derived spheroids with HUVEC/MSC, viability
Experiment: Anticancer human tumor 519858-162-T-J1-PDC patient-derived colon adenocarcinoma cell line growth inhibition [KRAS2]
Conditions: for IC50: curve of first compound; for viability, T/C: stronger effect = lower value
From the text: Multicellular complex tumor spheroid response to RAS pathway inhibitors in combination with a targeted agents in patient-derived cell lines with oncogenic KRAS variants from multiple cancer types
A high-throughput screen of multi-cell type tumor spheroids was designed to identify active combinations of targeted small molecules and KRAS pathway inhibitors. Complex spheroids include a stromal component modeled by human endothelial cells (HUVEC) and fibroblasts modeled by human mesenchymal stem cells (MSCs). The concentration ranges selected for each drug and investigational agent were based upon clinically achievable concentrations if the clinical Cmax of the agent was known.
Compounds. The drugs and investigational agents: BI-3406 (NSC825286), BAY-293 (NSC824723), batoprotafib (TNO155; NSC825523), sotorasib (AMG 510; NSC818433), MRTX1257 (NSC819558), elimusertib (BAY 1895344; NSC800525), molibresib (GSK525762; NSC774829), temuterkib (LY3214996; NSC803410), venetoclax (NSC766270), alisertib (NSC759677), olaparib (NSC753686), talazoparib (NSC767125), erdafitinib (NSC781556), ipatasertib (NSC767898), cabozantinib (NSC761068), nintedanib (NSC756659), abemaciclib (NSC768073), docetaxel (NSC628503), trametinib (NSC758246), and sapanisertib (NSC764658) were obtained from the National Cancer Institute (NCI) Developmental Therapeutics Program Chemical Repository. The FDA-approved anticancer drug set is available from the Developmental Therapeutics Program. […] The stock solutions were prepared in dimethyl sulfoxide (DMSO, Sigma-Aldrich, St. Louis, MO, cat. D2650) at 800-fold the tested concentration and stored at -70 degrees C prior to their use. All drugs and investigational agents were tested over a range starting from a high concentration at or near the clinical Cmax and decreasing in half-log increments. If the clinical Cmax for an agent had not been determined, the highest concentration tested was 10 microM.
Cell Culture. All cells were maintained in an incubator at 37 degrees C and 5% CO2 with 95% humidity. The PDC lines were cultured according to standard operating procedures established by the NCI PDMR (https://pdmr.cancer.gov/sops/default.htm). Briefly, all PDCs were thawed and cultured in Matrigel-coated flasks prepared with a working solution of 1X Ham's F-12 nutrient mix, without supplementation (Invitrogen, Waltham, MA, cat. 11765054), 100 U/mL penicillin-streptomycin (Invitrogen, cat. 15140122), and 2.5% Matrigel (Corning Inc., Corning, NY, cat. 354248) for the first three passages. All PDCs were cultured in complete DMEM/F-12 media containing advanced DMEM/F-12 (Invitrogen, cat. 12634028), 4.9% defined fetal bovine serum, heat inactivated (HyClone Laboratories Inc., Logan, UT, cat. SH30070.03HI), 389 ng/mL hydrocortisone (Sigma-Aldrich, cat. H4001), 9.7 ng/mL human EGF recombinant protein (Invitrogen, cat. PHG0313), 23.4 microg/mL adenine (Sigma-Aldrich, cat. A2786), 97.3 U/mL penicillin-streptomycin (Invitrogen, cat. 15140122), 1.9 mM L-glutamine (Invitrogen, cat. 25030081), and 9.7 microM Y-27632 dihydrochloride (Tocris Bioscience, Bristol, United Kingdom, cat. 1254). The PDCs were cultured in complete DMEM/F12 media without 9.7 microM Y-27632 dihydrochloride for at least two passages prior to the screen. The established cell line HOP-62 was cultured in RPMI 1640 medium, HEPES (Invitrogen, cat. 22400105) with 10% defined fetal bovine serum (HyClone Laboratories Inc., cat. SH30070.03) and 2 mM L-glutamine (Invitrogen, cat. 25030081). The pooled donor HUVEC were cultured in endothelial cell growth medium 2 (PromoCell, Heidelberg, Germany, cat. C-22011) and the hMSC were cultured in mesenchymal stem cell growth medium 2 (PromoCell, cat. C-28009). For all experiments, HUVEC and hMSC were used at passages </=5, while the malignant cell lines were used at passages </=15. […]

[1] = second compound 0.1 µM, first compound 0.0316 µM
[2] = second compound 0.1 µM, first compound 0.1 µM
[3] = second compound 0.1 µM, first compound 0.316 µM
[4] = second compound 0.1 µM, first compound 1 µM
[5] = second compound 0.1 µM, first compound 3.16 µM
[6] = second compound 0.316 µM, first compound 0.0316 µM
[7] = second compound 0.316 µM, first compound 0.1 µM
[8] = second compound 0.316 µM, first compound 0.316 µM
[9] = second compound 0.316 µM, first compound 1 µM
[10] = second compound 0.316 µM, first compound 3.16 µM
[11] = second compound 1 µM, first compound 0.0316 µM
[12] = second compound 1 µM, first compound 0.1 µM
[13] = second compound 1 µM, first compound 0.316 µM
[14] = second compound 1 µM, first compound 1 µM
[15] = second compound 1 µM, first compound 3.16 µM
[16] = second compound 3.16 µM, first compound 0.0316 µM
[17] = second compound 3.16 µM, first compound 0.1 µM
[18] = second compound 3.16 µM, first compound 0.316 µM
[19] = second compound 3.16 µM, first compound 1 µM
[20] = second compound 3.16 µM, first compound 3.16 µM
[21] = second compound 10 µM, first compound 0.0316 µM
[22] = second compound 10 µM, first compound 0.1 µM
[23] = second compound 10 µM, first compound 0.316 µM
[24] = second compound 10 µM, first compound 1 µM
[25] = second compound 10 µM, first compound 3.16 µM
[26] = second compound 0.1 µM, first compound 10 µM
[27] = second compound 0.316 µM, first compound 10 µM
[28] = second compound 1 µM, first compound 10 µM
[29] = second compound 3.16 µM, first compound 10 µM
[30] = second compound 10 µM, first compound 10 µM
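Note: compound exposure lasted seven days before readout.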
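Throughout, for viability, T/C: 100% = DMSO vehicle control viability.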

Compound | IC50 (second compound 0.1 µM) [nM] | IC50 (second compound 0.316 µM) [nM] | IC50 (second compound 1 µM) [nM] | IC50 (second compound 3.16 µM) [nM] | IC50 (second compound 10 µM) [nM] | viability, T/C [1] [%] | viability, T/C [2] [%] | viability, T/C [3] [%] | viability, T/C [4] [%] | viability, T/C [5] [%] | viability, T/C [6] [%] | viability, T/C [7] [%] | viability, T/C [8] [%] | viability, T/C [9] [%] | viability, T/C [10] [%] | viability, T/C [11] [%] | viability, T/C [12] [%] | viability, T/C [13] [%] | viability, T/C [14] [%] | viability, T/C [15] [%] | other results
CC1COCCN1c1cc(-c2ccnn2C)c2ccnc(-c3ccn[nH]3)c2n1 (stereo not given) + C=CC(=O)N1CCN(c2nc(=O)n(-c3c(C)ccnc3C(C)C)c3nc(-c4c(O)cccc4F)c(F)cc23)C(C)C1 | 1820 | 2100 | 838 | > 3160 | 340 | 102 | 89.3 | 82.7 | 61.6 | 38.1 | 94 | 78.4 | 87.9 | 69.8 | 39.1 | 91.8 | 124 | 78.5 | 50.1 | 39.6 | viability, T/C (second compound 0.1 µM, first compound 0.01 µM): 115%; viability, T/C (second compound 0.316 µM, first compound 0.01 µM): 87.4%; viability, T/C (second compound 1 µM, first compound 0.01 µM): 116%; viability, T/C (second compound 3.16 µM, first compound 0.01 µM): 110%; viability, T/C [16]: 97.9%; viability, T/C [17]: 89.4%; viability, T/C [18]: 80.9%; viability, T/C [19]: 68.6%; viability, T/C [20]: 48.8%; viability, T/C (second compound 10 µM, first compound 0.01 µM): 70.4%; viability, T/C [21]: 87%; viability, T/C [22]: 61.8%; viability, T/C [23]: 56%; viability, T/C [24]: 21.3%; viability, T/C [25]: 20.3%
CC1OCC2(CCN(c3cnc(Sc4ccnc(N)c4Cl)c(N)n3)CC2)C1N (stereo not given) + C=CC(=O)N1CCN(c2nc(=O)n(-c3c(C)ccnc3C(C)C)c3nc(-c4c(O)cccc4F)c(F)cc23)C(C)C1 | 7230 | > 10000 | 3160 | > 10000 | 3920 | 94.2 | 77.3 | 68.5 | 80.4 | 63.1 | 90.6 | 76 | 73.1 | 59.9 | 79.6 | 81.6 | 68.6 | 84.3 | 50.3 | 54 | viability, T/C [26]: 43.7%; viability, T/C [27]: 63.3%; viability, T/C [28]: 49.2%; viability, T/C [16]: 67.2%; viability, T/C [17]: 101%; viability, T/C [18]: 75.7%; viability, T/C [19]: 62.5%; viability, T/C [20]: 53.3%; viability, T/C [29]: 65.4%; viability, T/C [21]: 56%; viability, T/C [22]: 73%; viability, T/C [23]: 72.3%; viability, T/C [24]: 55.6%; viability, T/C [25]: 56%; viability, T/C [30]: 31.2%
CCNC(=O)CC1N=C(c2ccc(Cl)cc2)c2cc(OC)ccc2-n2c(C)nnc21 (stereo not given) + C=CC(=O)N1CCN(c2nc(=O)n(-c3c(C)ccnc3C(C)C)c3nc(-c4c(O)cccc4F)c(F)cc23)C(C)C1 | 2660 | 2380 | 2560 | 2210 | 2680 | 120 | 97.1 | 74.8 | 70.3 | 42.1 | 102 | 95.2 | 79.8 | 54.7 | 53 | 76 | 74.6 | 70.4 | 79.6 | 44.2 | viability, T/C [26]: 37.1%; viability, T/C [27]: 29.7%; viability, T/C [28]: 28.3%; viability, T/C [16]: 93.9%; viability, T/C [17]: 86.3%; viability, T/C [18]: 101%; viability, T/C [19]: 78.2%; viability, T/C [20]: 37.6%; viability, T/C [29]: 29.4%; viability, T/C [21]: 93.9%; viability, T/C [22]: 78.5%; viability, T/C [23]: 97.6%; viability, T/C [24]: 84.7%; viability, T/C [25]: 44.1%; viability, T/C [30]: 25.4%
Cn1nccc1Nc1nccc(-c2cc3c(s2)C(C)(C)N(CCN2CCOCC2)C3=O)n1 + C=CC(=O)N1CCN(c2nc(=O)n(-c3c(C)ccnc3C(C)C)c3nc(-c4c(O)cccc4F)c(F)cc23)C(C)C1 | 4830 | > 10000 | 5460 | 1930 | 1520 | 69 | 106 | 81.6 | 83.5 | 56.5 | 123 | 79.5 | 77.9 | 70.4 | 74.2 | 76.4 | 94.9 | 63.8 | 80.3 | 59.4 | viability, T/C [26]: 38.9%; viability, T/C [27]: 42.5%; viability, T/C [28]: 37.9%; viability, T/C [16]: 82.3%; viability, T/C [17]: 106%; viability, T/C [18]: 70.5%; viability, T/C [19]: 55.2%; viability, T/C [20]: 51.9%; viability, T/C [29]: 29.3%; viability, T/C [21]: 91%; viability, T/C [22]: 72.3%; viability, T/C [23]: 58.9%; viability, T/C [24]: 51%; viability, T/C [25]: 49.3%; viability, T/C [30]: 43.6%

Source: PubChem BioAssay AID1963872 (Molecular Pharmacology Branch, DTP, NCI, 2024)
